Laboratory results: patent US11419852B2, “Beta-lactam compounds or salts thereof for use in long-acting prevention or treatment of a glucose metabolism disorder” (GLYCOLYSIS BIOMED CO., LTD., priority 2019, dated 2022)
Marks after values point to notes of the source that are not given here.

What was measured:
Type in all cases: in vivo
db/db mice [1] = assay: Oral glucose tolerance test (OGTT); design: OGTT AUC: unit not given here
Procedure: Four to five weeks old db/db mice (BKS.Cg-Dock7^m+/+Lepr^db/JNarl) and m/m mice (BKS.Cg-Dock7^m+/Dock7^m+) were obtained from National Laboratory Animal Center ([…], Taiwan). […] PMI Nutrition International, Brentwood, Mo.) and water ad libitum. […] Blood was sampled from the tail vein, and FPG levels were measured and recorded as the basic blood glucose levels. […] The total area under the curve (AUC) in OGTT was plotted and calculated by the Area Under Coordinates Program (StatsToDo Server, Department of Obstetrics and Gynecology, Chinese University of Hong Kong).

db/db mice [2] = assay: Plasma biochemical parameters (AST, ALT, BUN, Cr, HbA1c)
Procedure: Inflammatory markers such as serum aspartate aminotransferase (AST), alanine aminotransferase (ALT), blood urea nitrogen (BUN), creatinine (Cr), and hemoglobin Alc (HbAlc) were measured using a BMC-Hitachi 717 chemistry auto analyzer.

db/db mice [3] = assay: Histopathological assessment (H&E stain)
Description: For histopathological assessment, all mice were sacrificed by 95% CO2 asphyxiation at the end of the study period. Their brain, liver, kidney, pancreas, and epididymal fat pads were removed, fixed in 10% phosphate-buffered formalin, and embedded in paraffin. Tissues embedded in paraffin were cut into […] sections that were then stained with hematoxylin-eosin (i.e., H&E stain).

[4] = Ex 1: db/db mice, ertapenem i.p. 0.41 mg/g bw/day, week 3
[5] = Ex 3, after the treatments had been stopped for 6 weeks
[6] = Ex 3: db/db mice, daily dosing 3 weeks at doses of Table 10, week 9

## C[C@@H](O)[C@H]1C(=O)N2C(C(=O)O)=C(S[C@@H]3CN[C@H](C(=O)Nc4cccc(C(=O)O)c4)C3)[C@H](C)[C@H]12 [DMH, ertapenem]
db/db mice [1]; Ex 2 G5 db/db, DMH i.p. 0.2 mg/g bw/day, dosing 6 weeks, week 18
  OGTT AUC: 1462 ± 104^b
db/db mice [1]; Ex 2 G6 db/db, DMH i.p. 0.4 mg/g bw/day, dosing 6 weeks, Week 6, 0 min
  Level of OGTT (blood glucose): 175 ± 30 mg/dL
db/db mice [1]; Ex 2 G6 db/db, DMH i.p. 0.4 mg/g bw/day, dosing 6 weeks, Week 6, 15 min
  Level of OGTT (blood glucose): 747 ± 38 mg/dL
db/db mice [1]; Ex 2 G6 db/db, DMH i.p. 0.4 mg/g bw/day, dosing 6 weeks, Week 6, 30 min
  Level of OGTT (blood glucose): 669 ± 69 mg/dL
db/db mice [1]; Ex 2 G6 db/db, DMH i.p. 0.4 mg/g bw/day, dosing 6 weeks, Week 6, 60 min
  Level of OGTT (blood glucose): 418 ± 56 mg/dL
db/db mice [1]; Ex 2 G6 db/db, DMH i.p. 0.4 mg/g bw/day, dosing 6 weeks, Week 6, 120 min
  Level of OGTT (blood glucose): 223 ± 27^ab
db/db mice [1]; Ex 2 G6 db/db, DMH i.p. 0.4 mg/g bw/day, dosing 6 weeks, Week 12, 0 min
  Level of OGTT (blood glucose): 166 ± 26^ac
db/db mice [1]; Ex 2 G6 db/db, DMH i.p. 0.4 mg/g bw/day, dosing 6 weeks, Week 12, 15 min
  Level of OGTT (blood glucose): 859 ± 50 mg/dL
db/db mice [1]; Ex 2 G6 db/db, DMH i.p. 0.4 mg/g bw/day, dosing 6 weeks, Week 12, 30 min
  Level of OGTT (blood glucose): 698 ± 65 mg/dL
db/db mice [1]; Ex 2 G6 db/db, DMH i.p. 0.4 mg/g bw/day, dosing 6 weeks, Week 12, 60 min
  Level of OGTT (blood glucose): 489 ± 55 mg/dL
db/db mice [1]; Ex 2 G6 db/db, DMH i.p. 0.4 mg/g bw/day, dosing 6 weeks, Week 12, 120 min
  Level of OGTT (blood glucose): 324 ± 47 mg/dL
db/db mice [1]; Ex 2 G6 db/db, DMH i.p. 0.4 mg/g bw/day, dosing 6 weeks, Week 16, 0 min
  Level of OGTT (blood glucose): 108 ± 22^ab
db/db mice [1]; Ex 2 G6 db/db, DMH i.p. 0.4 mg/g bw/day, dosing 6 weeks, Week 16, 15 min
  Level of OGTT (blood glucose): 543 ± 57 mg/dL
db/db mice [1]; Ex 2 G6 db/db, DMH i.p. 0.4 mg/g bw/day, dosing 6 weeks, Week 16, 30 min
  Level of OGTT (blood glucose): 650 ± 29^bc
db/db mice [1]; Ex 2 G6 db/db, DMH i.p. 0.4 mg/g bw/day, dosing 6 weeks, Week 16, 60 min
  Level of OGTT (blood glucose): 535 ± 43^bc
db/db mice [1]; Ex 2 G6 db/db, DMH i.p. 0.4 mg/g bw/day, dosing 6 weeks, Week 16, 120 min
  Level of OGTT (blood glucose): 244 ± 35^ab
db/db mice [1]; Ex 2 G6 db/db, DMH i.p. 0.4 mg/g bw/day, dosing 6 weeks, Week 18, 0 min
  Level of OGTT (blood glucose): 266 ± 35 mg/dL
db/db mice [1]; Ex 2 G6 db/db, DMH i.p. 0.4 mg/g bw/day, dosing 6 weeks, Week 18, 15 min
  Level of OGTT (blood glucose): 872 ± 46 mg/dL
db/db mice [1]; Ex 2 G6 db/db, DMH i.p. 0.4 mg/g bw/day, dosing 6 weeks, Week 18, 30 min
  Level of OGTT (blood glucose): 860 ± 58 mg/dL
db/db mice [1]; Ex 2 G6 db/db, DMH i.p. 0.4 mg/g bw/day, dosing 6 weeks, Week 18, 60 min
  Level of OGTT (blood glucose): 637 ± 64 mg/dL
db/db mice [1]; Ex 2 G6 db/db, DMH i.p. 0.4 mg/g bw/day, dosing 6 weeks, Week 18, 120 min
  Level of OGTT (blood glucose): 480 ± 73 mg/dL
db/db mice [1]; Ex 2 G6 db/db, DMH i.p. 0.4 mg/g bw/day, dosing 6 weeks, week 6
  OGTT AUC: 884 ± 84^b
db/db mice [1]; Ex 2 G6 db/db, DMH i.p. 0.4 mg/g bw/day, dosing 6 weeks, week 12
  OGTT AUC: 1026 ± 94^b
db/db mice [1]; Ex 2 G6 db/db, DMH i.p. 0.4 mg/g bw/day, dosing 6 weeks, week 16
  OGTT AUC: 916 ± 68^b
db/db mice [1]; Ex 2 G6 db/db, DMH i.p. 0.4 mg/g bw/day, dosing 6 weeks, week 18
  OGTT AUC: 1291 ± 118^b
db/db mice [1]; Ex 3, medications stopped for at least 3 weeks (FIG. 6A, 6B)
  Regulation of blood glucose homeostasis (OGTT glucose vs G8): still effective
db/db mice [1]; Ex 3: db/db mice, daily dosing 3 weeks at doses of Table 10, Week 6 (stopped for 3 weeks)
  OGTT AUC: 1263 ± 135^b
db/db mice [1]; Ex 3: db/db mice, daily dosing 3 weeks at doses of Table 10, Week 9 (stopped for 6 weeks)
  OGTT AUC: 1356 ± 149^bc
db/db mice [2]; Ex 1, week 3
  Levels of AST, ALT, BUN, and HbA1c in the diabetes mice: significantly reduced
db/db mice [2]; [4]
  ALT: 34 ± 6 U/L
  AST: 61 ± 7 U/L
  BUN: 27 ± 2 mg/dL
  Creatinine: 0.57 ± 0.02 mg/dL
  HbA1c: 6.1 ± 0.8 %
db/db mice [2]; [5]
  Level of ALT: reduce
  Level of AST: reduce
  Level of HbA1c: reduce
db/db mice [2]; [6]
  ALT: 79 ± 8^bc U/L
  AST: 127 ± 13^ad U/L
  BUN: 44 + 2^d mg/dL
  Creatinine: 0.467 ± 0.01^bd mg/dL
  HbA1c: 5.8 ± 0.3^d %
db/db mice [3]; Ex 1, after 3 weeks 0.41 mg/g bw/day i.p.
  Injuries in brain, liver, kidney, pancreas, and epididymal fat pads: no significant injuries
db/db mice [3]; Ex 1, hepatocyte cytoplasm around central venous region
  Severity and incidence of liver glycogen storage vs DB group: slighter
db/db mice [3]; Ex 2
  Injuries in liver, kidney, pancreas, and epididymal fat pads: No significant injuries
